{"source": "patent US20260327628A1", "about": "“AN RNA APTAMER THAT BINDS TO ASP7967 OR AN ANALOGUE THEREOF” (priority 2022, published 2026)", "key": {"[1]": {"tested_on": "aptazyme-based riboswitches (AC17-4)", "assay": "cells", "format": "cell-based", "details": "Homo sapiens, 48 h; ligand as low as 5 μM in culture medium, HEK293 cells; read-out: activation of gene expression", "procedure": "HEK293 cells were cultured in Dulbecco's modified Eagle's medium (DMEM) supplemented with 10% heat-inactivated FBS (Gibco) containing 2 mM L-glutamine and 100 units ml^−1 of penicillin-streptomycin (DMEM-FBS). Cells were kept in a 37° C. incubator with 5% CO2 and passaged regularly upon reaching 90% confluency. Approximately 20 h prior to transfection, the cells were trypsinized, diluted to ~2.7×10^5 cells ml^−1 and 100 μl per well were seeded onto a 96-well plate. Cells in each well were cotransfected with 100 ng of the EGFP-aptazyme plasmid and 20 ng of pCMV-mCherry^27 (transfection control) using 0.3 μl of TransIT-293 Transfection Reagent (Mirus) according to the manufacturer's instructions. […] Forty-eight hours after transfection, the medium in each well was replaced with 100 μl of phosphate buffered saline (PBS), and fluorescence intensity was measured by Infinite M1000 PRO microplate reader (Tecan). Fluorescence intensity was measured at 484 nm excitation/510 nm emission/5 nm bandwidth for EGFP, and at 587 nm excitation/610 nm emission/10 nm bandwidth for mCherry. Background fluorescence measured using untransfected cells was subtracted from the EGFP and mCherry fluorescence values. Then, EGFP fluorescence was normalized by mCherry fluorescence to account for variations in transfection efficiency and cell counts. […]"}, "HEK293 cells": {"tested_on": "HEK293 cells", "assay": "MTT (cell proliferation) assay", "format": "cell-based", "details": "up to 10 μM, 18 h", "procedure": "MTT assay was performed using MTT Cell Count Kit (Nacalai Tesque). HEK293 cells were trypsinized, diluted to 2.4×10^5 cells ml^−1 and 100 μl per well were seeded onto a 96-well plate. The cells were cultured for 24 h at 37° C. under 5% CO2. The medium was replaced with fresh medium (DMEM-FBS with 0.1% (v/v) DMSO) with 0, 2, 5, or 10 μM of ASP2905 or ASP7967. The cells were cultured for additional 18 h at 37° C. under 5% CO2. Subsequently, 10 μl of MTT solution was added to each well, and the cells were incubated for 3 h at 37° C. under 5% CO2. Next, 100 μl of the Solubilization Solution was added to each well. To dissolve the precipitated formazan, the plate was incubated for 2 h at 37° C. Absorbance at 570 nm (reference wavelength: 700 nm) was measured by Infinite M1000 PRO microplate reader (Tecan). The reported values are averages of four replicate wells. The assay was repeated three times to ensure reproducibility."}, "[2]": {"tested_on": "hEPO secretion from HEK293 cells", "assay": "In vitro hEPO assay (ELISA), AAV vector plasmids in HEK293 cells", "format": "cell-based, human", "procedure": "For the hEPO ELISA assay in FIG. 9b, HEK293 cells were trypsinized and diluted to 2.0×10^5 cells ml^−1 and 100 μl per well were seeded onto a 96-well collagen plate. Cells in each well were transfected with 100 ng of the pAAV-CMV-hEPO-p3-d pAAV-CMV-hEPO-control, pAAV-MCS-based plasmids encoding human EPO with or without CPP-a8c-AC17-4 riboswitch using 0.3 μl of TransIT-293 Transfection Reagent according to the manufacturer's instructions. The medium in each well was replaced with fresh medium with (up to 10 μM) or without ASP7967 5 h after transfection. At 24 h after transfection, the medium in each well was collected and stored at −20° C. To measure hEPO concentrations, the medium was diluted 50-fold by PBS and further diluted 50-fold by the specimen diluent buffer included in the ELISA kit. The diluted samples were measured using Human Erythropoietin/EPO Quantikine ELISA Kit (R&D systems, Inc.) and Infinite M200 PRO microplate reader (TECAN).\nThen, a8c-AC17-4-CPP was inserted into the 3′ UTR region of hEPO gene expressed from the CMV promoter in a plasmid containing AAV2 inverted terminal repeats (ITR) (pAAV-CMV-hEPO-a8c-AC17-4-CPP) (FIG. 9a). The plasmid pAAV-CMV-hEPO-a8c-AC17-4-CPP was transfected into HEK293 cells in the absence or presence (0.1~10 μM) of ASP7967. Two days after transfection, hEPO concentrations in the culture medium were measured by ELISA. […]"}}, "note": "Entries after “also recorded” stand apart in the source; their conditions may differ."}
{"smiles": "Fc1ccc(Nc2nc(NCc3ncccn3)nc(Nc3ccc(F)cc3)n2)cc1", "note": "[ASP7967]", "values": [{"measurement": "fold induction at 5 µM", "setting": "[1]", "value": "> 10"}, {"measurement": "effect on cell proliferation / cellular toxicity", "setting": "HEK293 cells", "value": "not significantly affected; also recorded: No cellular toxicity up to 10 μM was observed; also recorded: not cytotoxic"}, {"measurement": "hEPO level in medium relative to control plasmid", "setting": "[2]; 10 μM ASP7967, pAAV-CMV-hEPO-a8c-AC17-4-CPP", "value": 29, "unit": "%"}, {"measurement": "fold induction at 10 µM", "setting": "[2]; Homo sapiens, HEK293, 24 h, read-out: induction of hEPO", "value": 10}]}
{"smiles": "Fc1ccc(Nc2nc(NCc3ncccn3)nc(Nc3ccccc3)n2)cc1", "note": "[ASP2905, reference compound]", "values": [{"measurement": "fold induction at 5 µM", "setting": "[1]", "value": "> 10"}, {"measurement": "effect on cell proliferation / cellular toxicity", "setting": "HEK293 cells", "value": "not significantly affected"}, {"measurement": "effect on cell proliferation / cellular toxicity", "setting": "HEK293 cells; listed as ASP2095", "value": "No cellular toxicity up to 10 μM was observed; also recorded: not cytotoxic"}]}
